According to the kinase profiling compilation of Christmann-Franck et al. (2016):

Each compound was assayed against SGK1 (human) (UniProt O00141) (assay: Flashplate).
Chain of SGK1 (human) (O00141 whole entry, looked up): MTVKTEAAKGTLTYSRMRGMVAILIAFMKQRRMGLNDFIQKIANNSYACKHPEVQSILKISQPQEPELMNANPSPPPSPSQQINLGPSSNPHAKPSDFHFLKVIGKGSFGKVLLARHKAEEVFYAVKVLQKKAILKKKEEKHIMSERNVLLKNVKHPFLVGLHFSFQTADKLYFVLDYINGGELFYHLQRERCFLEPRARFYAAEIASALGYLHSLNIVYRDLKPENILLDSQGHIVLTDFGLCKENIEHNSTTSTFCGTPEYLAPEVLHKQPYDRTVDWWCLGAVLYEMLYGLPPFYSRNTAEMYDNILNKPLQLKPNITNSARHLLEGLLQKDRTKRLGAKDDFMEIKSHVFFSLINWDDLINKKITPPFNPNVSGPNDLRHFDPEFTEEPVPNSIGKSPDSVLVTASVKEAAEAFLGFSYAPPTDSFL

Row | SMILES | Ki
1 | Cc1nccn2c(-c3ccnc(NCC4(O)CC4)n3)c(-c3ccc(F)cc3F)nc12 | > 10 µM
2 | Nc1ncnc2c1c(-c1cccc(OCc3ccccc3)c1)cn2[C@H]1CC[C@H](N2CCCC2)CC1 | > 10 µM
3 | Cc1n[nH]c2c1C(c1ccccc1F)C1=C(CC(C)(C)CC1=O)N2 (centres undefined) | > 10 µM
4 | CCOc1nc(NC(=O)Cc2cc(OC)c(S(C)(=O)=O)cc2OC)cc(N)c1C#N | > 10 µM
5 | Nc1noc2cccc(-c3cccc(O)c3)c12 | > 10 µM
6 | O=C(Nc1cccc(-c2nc3sccn3c2-c2ccnc(Nc3cccc(N4CCCC4=O)c3)n2)c1)c1c(F)cccc1F | > 10 µM
7 | N#Cc1ncc2nc1OCCCCCOc1cc(OCCO)c(Cl)cc1NC(=O)N2 | > 10 µM
8 | O=C(Nc1cccc(C(F)(F)F)n1)Nc1ccnc2cc(C(F)(F)F)ccc12 | > 10 µM
9 | Cc1c(C=O)c(O)n2c(nc3ccccc32)c1C#N | > 10 µM
10 | NC(=O)C1CCCN(C(=O)c2cc(-c3ccc4[nH]ncc4c3)on2)C1 (centres undefined) | > 10 µM
11 | O=c1c(NCCc2ccc(Oc3ccccc3)cc2)c(Nc2ccncc2)c1=O | > 10 µM
12 | O=c1[nH]c2sc3c(c2c2nc(-c4ccccc4)nn12)CCCC3 | > 10 µM
13 | O=C1/C(=N\Nc2cccc3c(=O)[nH][nH]c(=O)c23)C(c2ccccc2)=NN1c1ccccc1 | > 10 µM
14 | O=C1Cc2c([nH]c3ccc([N+](=O)[O-])cc23)-c2ccccc2N1 | > 10 µM
15 | CNC(=O)c1cc(Oc2ccc(NC(=O)Nc3cccc(C(F)(F)F)c3)cc2)ccn1 | > 10 µM
16 | Nc1ccc(-c2cncc(OC[C@@H](N)Cc3c[nH]c4ccccc34)c2)cc1C(=O)c1ccccc1 | > 10 µM
17 | C[C@]1(O)C[C@@H](c2nc(-c3ccc4ccc(-c5ccccc5)nc4c3)c3c(N)nccn32)C1 | > 10 µM
18 | CC(=O)c1cccc(-c2cnc3[nH]ccc3c2)c1 | > 10 µM
19 | Clc1cc2nn[nH]c2cc1Cl | > 10 µM
20 | COC(=O)c1cc2c(-c3cccc(F)c3)cncc2s1 | > 10 µM
21 | OCCNc1cc2cc(-c3ccccc3)ccc2cn1 | > 10 µM

Row | SMILES | Ki
22 | CCCC(=O)Nc1n[nH]c2nnc(-c3cccc(F)c3F)cc12 | > 10 µM
23 | Cc1cc(C)cc(NC(=O)Nc2ccc3c(c2)CCc2sc4ncnc(N)c4c2-3)c1 | > 10 µM
24 | Nc1ncnc2sc3c(c12)-c1ccc(NC(=O)Nc2ccccc2)cc1CC3 | > 10 µM
25 | COc1nccc(-c2c(-c3ccc(F)cc3)ncn2C2CCNCC2)n1 | > 10 µM
26 | O=C(Nc1cccc(C(F)(F)F)n1)Nc1ccnc2c(F)cccc12 | > 10 µM
27 | CC1=NN(c2ccccc2)C(=O)/C1=C/c1c(C)c(C#N)c2nc3ccccc3n2c1O | > 10 µM
28 | CCN1C(=O)N(C)c2cnc(Nc3ccc(C(=O)NC4CCN(C)CC4)cc3OC)nc2N1C1CCCC1 | > 10 µM
29 | CC(=O)Nc1cc(N)c(C#N)c(-c2ccc3ccccc3c2)n1 | > 10 µM
30 | COCCOCC#Cc1cc(-c2n[nH]c3c2C(=O)c2cc(CN4CCN(C)CC4)ccc2-3)cs1 | > 10 µM
31 | N#Cc1ccc2nc(N)n(-c3nc(-c4ccccc4)cs3)c2c1 | > 10 µM
32 | COc1cc(S(C)(=O)=O)c(OC)cc1CC(=O)Nc1cc(N)c(C#N)c(OC(C)C)n1 | > 10 µM
33 | O=C1NC(=O)C(c2cnc3ccccn23)=C1c1cn2c3c(cc(F)cc13)CN(C(=O)N1CCCCC1)CC2 | > 10 µM
34 | CCCCCCCCCCCCOc1ccc(NC(=N)N)cc1NC(=N)N | > 10 µM
35 | Cc1ccc(-c2nn(C(C)(C)C)c3ncnc(N)c23)cc1 | > 10 µM
36 | Cc1cc(NC(=O)CCNC(=O)Nc2nc(C)c(-c3ccc(-n4cccn4)cc3)s2)no1 | > 10 µM
37 | O=C(O)c1cc2c(-c3cccc(F)c3)cncc2s1 | > 10 µM
38 | Nc1nccc2scc(-c3ccc(NC(=O)Nc4cccc(Cl)c4)cc3)c12 | > 10 µM
39 | CN1CCN([C@H]2CC[C@H](n3cc(-c4ccc(Oc5ccccc5)cc4)c4c(N)ncnc43)CC2)CC1 | > 10 µM
40 | NC(=O)c1cc(-c2cccc(N)c2)cc2cccnc12 | > 10 µM
41 | COc1ccc2c(NC(=O)Nc3cccc(C(F)(F)F)n3)ccnc2c1 | > 10 µM
42 | COc1cncc(/C=C/c2ccncc2)c1 | > 10 µM

Row | SMILES | Ki
43 | O=C(NCCCCCCNC(=O)NCc1cccnc1)NCc1cccnc1 | > 10 µM
44 | O=C(Cc1ccccc1)Nc1cccc(-c2nc3sccn3c2-c2ccnc(Nc3cccc(N4CCCC4=O)c3)n2)c1 | > 10 µM
45 | CNc1ncnc2c1N=C(c1ccc(NC(=O)Nc3cccc(C(F)(F)F)c3)cc1)CCN2 | > 10 µM
46 | COc1ccc(OC)c(NC(=O)c2cnn3c(-c4ccccc4)ccnc23)c1 | > 10 µM
47 | Nc1nonc1-n1nnc(C(=O)N/N=C/c2cccs2)c1-c1cccs1 | > 10 µM
48 | COc1cccc2c1Nc1cc(Nc3ccncc3)ccc1C(=O)N2 | > 10 µM
49 | CC(=O)N(c1ccncc1)c1c(N[C@H](C)C(C)(C)C)c(=O)c1=O | > 10 µM
50 | NC(=O)c1cc(Cl)cc2[nH]c(-c3ccc(C4CCCNC4)cc3F)nc12 (centres undefined) | > 10 µM
51 | CCNc1nc2cc(Cl)c(OC)cc2nc1NCC | > 10 µM
52 | CN(C)CCCC(=O)Nc1n[nH]c2nnc(-c3cccc(F)c3F)cc12 | > 10 µM
53 | CC(=O)Nc1cc(N)c(C#N)c(-c2ccccc2)n1 | > 10 µM
54 | CC(C)(C)c1cc(NC(=O)Nc2cccc3ccccc23)n(-c2cccc(C(=O)NCC#N)c2)n1 | > 10 µM
55 | C/C(=N\NC(=O)c1nnn(-c2nonc2N)c1-c1ccccc1)c1ccco1 | > 10 µM
56 | CNc1nccn2c(-c3ccnc(NCC(C)(C)CO)n3)c(-c3ccc(F)cc3)nc12 | > 10 µM
57 | NCCNS(=O)(=O)c1cccc(C(=O)Nc2ccc(-c3n[nH]c(=O)c4ccccc34)cc2)c1 | > 10 µM
58 | Nc1ncnc2c1c(I)nn2[C@@H]1O[C@H](CO)[C@@H](O)[C@H]1O | > 10 µM
59 | CC(C)(O)CNc1nccc(-c2c(-c3ccc(F)cc3F)nc3c(CC4CC4)nccn23)n1 | > 10 µM
60 | N#Cc1ncc2nc1OCCCCCOc1cc(OCC(O)CO)c(Cl)cc1NC(=O)N2 (centres undefined) | > 10 µM
61 | Cc1nccn2c(-c3ccnc(NCC(C)(C)O)n3)c(-c3ccc(F)cc3F)nc12 | > 10 µM
62 | CC1CSc2c(C(=O)O)c(=O)c3cc(F)c(N4CC[C@@H](N)C4)cc3n21 (some centres undefined) | > 10 µM
63 | O=C(N/N=C/c1ccc(Sc2nc3ccccc3[nH]2)o1)c1cccc([N+](=O)[O-])c1 | > 10 µM

Second part, the compound after the results:

Row | Ki | SMILES
64 | > 10 µM | Cc1ccc(-c2cnc(N)c3c(-c4ccc(NC(=O)Nc5cccc(F)c5)cc4)csc23)cn1
65 | > 10 µM | O=C(c1cc(-c2ccc3[nH]ncc3c2)on1)N1CCC[C@@H](O)C1
66 | 1 µM | O=C1NCCc2[nH]c(-c3ccnc(/C=C/c4ccccc4)c3)cc21
67 | > 10 µM | Clc1ccc(CNc2ccc3nnc(-c4ccccc4)n3n2)cc1
68 | 7.94 µM | NC(=O)c1cccc2c1Nc1nnc(Cl)cc1C(=O)N2
69 | 3.16 µM | Cc1cccc(NC(=O)Nc2ccc(-c3csc4c(C#CC(C)(C)N)cnc(N)c34)cc2)c1
70 | 0.158 µM | O[C@H]1CC[C@H](Nc2nc(Cl)cc(-c3c[nH]c4ncccc34)n2)CC1
71 | 1.26 µM | Cc1cc(NC(=O)Cc2ccc(-c3cccc4[nH]nc(N)c34)cc2)ccc1F
72 | 2 µM | Cc1n[nH]c2ccc(-c3cncc(OCCN)c3)cc12
73 | 5.01 µM | COc1ccc(/C=C2/S/C(=N/c3ccccc3)NC2=O)cc1O
74 | 2 µM | Cn1cc(-c2cnc(N)c3c(-c4ccc(NC(=O)Nc5cccc(F)c5)cc4)csc23)cn1
75 | > 6.31 µM | CCOc1nc(C(=O)NCc2ccccc2S(N)(=O)=O)cc(N)c1C#N
76 | 3.98 µM | Cc1cccc(NC(=O)Nc2ccc(-c3csc4c(C#CCN)cnc(N)c34)cc2)c1
77 | 10 µM | COc1cc(-c2ccc3c(c2)Nc2ccc(C(=O)NCCNC(C)=O)cc2NC3=O)ccc1O
78 | 1 µM | CCCC(=O)Nc1n[nH]c2ccc(-c3cn(Cc4ccccc4)nn3)cc12
79 | 5.01 µM | C[C@H](N)COc1cnc(Cl)c(/C=C/c2ccncc2)c1
80 | > 7.94 µM | COc1cc(-c2ccc3c(c2)NC(=O)c2ccc(-c4ccccc4NS(C)(=O)=O)cc2N3)cc(OC)c1OC
81 | 6.31 µM | CCOC(=O)c1ccc2[nH]c3c(c2c1)CCNC3=O
82 | 2 µM | NC(=O)c1cc2c(Oc3ccc(Br)cc3)cncc2s1
83 | 0.316 µM | Oc1cc(O)cc(/C=C/c2ccc(O)c(O)c2)c1
84 | 3.16 µM | NC(=O)c1sc2c(Br)ccc(Cl)c2c1N
85 | 0.02 µM | COc1cccc([C@@H](C)NC(=O)N2CC=C(c3c[nH]c4ncccc34)CC2)c1
86 | 7.94 µM | CCCS(=O)(=O)Nc1ccc(-c2ccc3[nH]nc(NC(=O)CC)c3c2)cc1

Row | Ki | SMILES
87 | > 7.94 µM | Cc1cccc(Nc2nc(N[C@@H]3CCCC[C@@H]3N)cnc2C(N)=O)c1
88 | 0.631 µM | CS(=O)(=O)Nc1ccc(-c2ccc3[nH]nc(N)c3c2)cc1
89 | 3.98 µM | Cc1ccc(CNc2c(Nc3ccncc3)c(=O)c2=O)cc1
90 | 3.16 µM | O=C(NCc1ccccc1)c1ccc(-c2ccncc2)cc1
91 | > 7.94 µM | COc1cc(Nc2ncc(F)c(Nc3ccc4c(n3)NC(=O)C(C)(C)O4)n2)cc(OC)c1OC
92 | > 6.31 µM | CC(C)(C)n1nc(-c2ccc(Cl)cc2)c2c(N)ncnc21
93 | > 7.94 µM | Oc1cccc(-c2nc(N3CCOCC3)c3oc4ncccc4c3n2)c1
94 | 3.98 µM | CC(=O)Nc1c(C(N)=O)sc2ccc(Cl)c(Cl)c12
95 | 6.31 µM | CCN1CCN(c2ccc(Nc3nccc(-c4c(-c5cccc(C(=O)Nc6ccccc6F)c5)nc5ccccn45)n3)cc2)CC1
96 | 0.158 µM | Nc1ncnc2c1sc1ncnc(N)c12
97 | 0.0631 µM | Cc1n[nH]c2cnc(-c3cncc(OC[C@@H](N)Cc4cccc(C(F)(F)F)c4)c3)cc12
98 | 1.26 µM | CC(C)Nc1c(-c2ccc3[nH]ncc3c2)nc2ncccn12
99 | 0.631 µM | COC(=O)c1c(-c2ccc(NC(=O)Nc3ccccc3)cc2)c2c(N)ncnn2c1C
100 | 3.16 µM | CCCn1c(C2CCNCC2)nc(-c2ccc(Cl)c(Cl)c2)c1-c1ccnc(NC2CCCCC2)n1
101 | 2.51 µM | CCCCOc1ncnc2[nH]cc(-c3ccccc3)c12
102 | 5.01 µM | NC(=O)c1cc2c(-c3ccccc3)cncc2s1
103 | > 6.31 µM | CCOc1nc(C(=O)NCc2ccc(S(C)(=O)=O)cc2)cc(N)c1C#N
104 | 6.31 µM | Cc1cc(OC[C@@H]2CC[C@H](C(=O)O)C2)c(NC(=O)Nc2cnc(C#N)cn2)cc1Cl
105 | 0.398 µM | CC(=O)NCC(=O)N1C2CCC1c1cc(Nc3ncc(C(F)(F)F)c(NC4CCC4)n3)ccc12 (centres undefined)
106 | 2 µM | O=C1NC(=S)S/C1=C1\C(=O)Nc2ccc(Br)cc21
107 | 1.58 µM | S=c1[nH]nc2c3c4c(sc3n3c(=S)[nH]nc3n12)CCC4
108 | 5.01 µM | NCCCOc1cc2c(c(-c3ccc(Nc4nc5ccc(Cl)cc5o4)cc3)c1)CNC2=O
109 | 2.51 µM | Nc1ncnc2c1N=C(c1ccc(NC(=O)Nc3cccc(C(F)(F)F)c3)cc1)CCN2
